Where two headings read alike, the source gives them in different places.
Assays:
human H4 cells = assay: Steroid compounds, Aβ42 levels in human H4 cells (FIG. 2, FIG. 21); type: cell-based
From the text: FIG. 21 contains the results of an in vitro assay, studying the effects of various steroid compounds on Aβ42 levels in human H4 cells. Chemical names and molecular weights of each steroid are presented.
Agents having the ability to modulate Aβ42 levels were identified as follows. […] It was hypothesized that it might be possible to convert Aβ42 increasing agents into Aβ42 reducing agents by incorporating an acidic group into the core structure. For steroids, multiple steroids containing an acidic group were obtained from Steraloids Inc. and screened for the ability to reduce Aβ42 levels.

APP wild-type cells = assay: Aβ modulation in APP wild-type cells; type: cell-based; set-up: Aβ42 raised: dose or concentration left out as unconfirmed
Protocol: (§1) (A) and (B) The sequences of wildtype (WT; A) APP and the mutated substrate (B) containing the homologous region (italic, underlined) of the NOTCH transmembrane domain (TMD) in APP where GSMs are hypothesized to bind. […] Bottom row, FT-1 ([…]) raised Aβ42 200% in APP wild-type cells (A); however, in APP-NOTCH TMD cells (B), FT-1 caused minimal changes in the Aβ42 (95%) or Aβ40 (90%) signal. Data are presented as amyloid-β percentage of control±s.e.m., n=3.
FIG. 19. Substitution of human Notch sequence in the APP transmembrane domain (TMD) changes sensitivity to modulation. (A) Site-directed mutagenesis was used to exchange the analogous region of the human Notch TMD (bold and underlined) for a section (bold and underlined) of wild-type APP (APPwt) we have shown to be labeled by GSMs. The new substrate (APP-Notch TMD) is cleaved by γ-secretase primarily after valine and alanine residues corresponding to 40 and 42 in APPwt (arrows). […] The beginning (1) N-terminal amino acid (AA) to the ending C-terminal AA is shown above each peak, with the molecular weight (m/z) below. 1-40 and 1-42 are detected as the two major species in APP-Notch TMD conditioned media. It should be noted that the mutagenesis strategy to create APPNotch TMD led to a single AA deletion relative to APPwt. […] Both cell lines were treated (6 hours) with L-685,458 (10 μM), which is hypothesized to target the active site aspartate residues, media was collected, and analyzed for changes in Aβ levels. […]
To test the hypothesis that mutation of the GSM binding site in APP should alter sensitivity to GSMs, a portion of the GSM binding site in APP was exchanged with the analogous region of human NOTCH (FIGS. 18A and 18B; FIG. 19). […] Although the molecular weight and abundance of each chimeric peptide differed from amyloid-β peptides from APP, the main species produced from the APP-NOTCH TMD construct had identical C-termini to Ab1-40 and Ab1-42, and could be quantified by enzyme-linked immunosorbent assays (ELISAs; FIG. 19). […]

APP-NOTCH TMD cells = assay: Aβ modulation in APP-NOTCH TMD cells; type: cell-based, human; set-up: Aβ42 signal (percentage of control) / Aβ40 signal (percentage of control): dose or concentration left out as unconfirmed
Protocol: as §1
FIG. 19. Substitution of human Notch sequence in the APP transmembrane domain (TMD) changes sensitivity to modulation. (A) Site-directed mutagenesis was used to exchange the analogous region of the human Notch TMD (bold and underlined) for a section (bold and underlined) of wild-type APP (APPwt) we have shown to be labeled by GSMs. The new substrate (APP-Notch TMD) is cleaved by γ-secretase primarily after valine and alanine residues corresponding to 40 and 42 in APPwt (arrows). […] The beginning (1) N-terminal amino acid (AA) to the ending C-terminal AA is shown above each peak, with the molecular weight (m/z) below. 1-40 and 1-42 are detected as the two major species in APP-Notch TMD conditioned media. It should be noted that the mutagenesis strategy to create APPNotch TMD led to a single AA deletion relative to APPwt. The correct change in molecular weight caused by the introduced mutations were confirmed by the mass spectrum. For simplicity the peptides are referenced by their C-terminal residues relative to Aβ (40, 42, etc). Representative mass spectra are shown from multiple IP reactions (3) and duplicate spots. […] Both cell lines were treated (6 hours) with L-685,458 (10 μM), which is hypothesized to target the active site aspartate residues, media was collected, and analyzed for changes in Aβ levels. The 40 and 42 Aβ reactive species from both cell lines were inhibited by L-685,458 with equal sensitivity (no significant difference; 40 p>0.5; 42 p>0.4; t test; n=3).
To test the hypothesis that mutation of the GSM binding site in APP should alter sensitivity to GSMs, a portion of the GSM binding site in APP was exchanged with the analogous region of human NOTCH (FIGS. 18A and 18B; FIG. 19). The chimeric construct was used because the NOTCH transmembrane domain (TMD) appears resistant to GSM effects. The APP NOTCH TMD construct produced a spectrum of chimeric amyloid-β species in conditioned cell media (FIG. 19). Although the molecular weight and abundance of each chimeric peptide differed from amyloid-β peptides from APP, the main species produced from the APP-NOTCH TMD construct had identical C-termini to Ab1-40 and Ab1-42, and could be quantified by enzyme-linked immunosorbent assays (ELISAs; FIG. 19). The relative sensitivity to GSMs of APP-NOTCH TMD versus APP was assayed in stably transfected cells. […]

Tg2576 mice = assay: Acute oral dosing of Tg2576 mice, brain soluble Aβ after 4 hours; type: in vivo, mouse
Protocol: FIG. 2. Aβ modulating agents can inhibit Aβ aggregation, and agents that bind Aβ amyloid can modulate Aβ42 production. […] (C) Aβ42 modulating agents inhibit naturally secreted oligomer formation. 7PA2 cells were treated with fenofibrate, FT-1, or FT-9 at 50 μM and oligomers assessed by IP Western blotting. […] (D) FT-9, an Aβ42 reducing agent, can inhibit Aβ42 aggregation in vitro.
FIG. 13. Compounds that bind Aβ are GSMs in vitro and in vivo. (A) A cell-based screen of Aβ-binders identified molecules that increase Aβ42 (DAPH) or decrease Aβ42 (Bis-ANS, X-34 or chrysamine G (CG)). Data are mean±s.e.m., n=3. (B) X-34 is an Aβ42-lowering GSM. Changes in amyloid-β peptide amounts after X-34 treatment are shown. Data are presented as percentage control±s.e.m., n=3. EC50 values were calculated. […] NA, not applicable. (C) X-34 binds to APP(C100)-Flag and decreases labeling by GSM photoprobes. Biotin incorporation into APP by Fen-B and Flurbi-BpB is presented as percentage of control (peptide without X-34)±s.e.m., n=2. (D) X-34 lowers Aβ42 in Tg2576 mice after 4 h. […] Data are presented as amyloid-β percentage of control relative to vehicle±s.e.m. Animals per group (n). Asterisk, P,0.05; two asterisks, P,0.01; ANOVA with Dunnett's post-hoc analysis.
(§2) Finally, X-34 was tested for its ability to modulate Aβ42 amounts in an APP transgenic mouse (Tg2576).

[1] = tested on: Human H4 neuroglioma cells expressing wild-type APP695 protein or CTF105; assay: Cell-based screens for amyloid-β modulation (H4 cells, ELISA); details: H4 cells expressing APP
From the text: Photoaffinity labelling. All experiments used the following general protocol. […] Cell-based screens for amyloid-β modulation. […] Statistical analysis.

γ-secretase = γ-secretase (Homo sapiens, UniProt P49768); assay: GSM activity of compounds that bind Aβ or Aβ amyloid (cell-based or cell-free γ-secretase assays, FIG. 12); details: two doses (10 and 100 μM)
Protocol: A literature search was performed to identify compounds reported to bind to the Aβ peptide directly or amyloid. These candidates were initially tested in cell-based assays or cell-free in vitro γ-secretase assays at two doses (10 and 100 μM).
as §2

[2] = tested on: 7PA2 cells (CHO cells stably expressing human APP751 V717F); assay: 7PA2 cells: Aβ oligomers (IP/western) and Aβ ELISA; type: cell-based, Chinese hamster
Protocol: FIG. 17. γ-secretase modulators decrease the production of cell derived Aβ oligomers. CHO cells stably expressing human APP751 containing the familial Alzheimer's disease mutation V717F (referred to as 7PA2 cells) were incubated for ˜16 hours in the presence of GSMs. […] Aβ40 levels were decreased to varying degrees (26-35%; Li-Cor Odyssey). (B) and (C) Because the extended incubation times necessary to reliably detect Aβ oligomers in this assay can be toxic, we carried out additional dose response studies with fenofibrate and FT-9 to verify that decreases in Aβ oligomers levels were not related to toxicity or global inhibition of Aβ production. […] (C) Increasing doses of FT-9 reduced the detection of Aβ oligomeric bands and Aβ42 decreased preferentially with decreases in Aβ40 at higher doses. […] Aβ species present in conditioned medium were detected by IP using the polyclonal anti-Aβ antibody, DW6 and subsequent immunoblotting with either 6E10 or the 42-specific, anti-Aβ antibody 21F12. Aβ levels in the samples analyzed via IP/western were also quantified via sandwich ELISA. Data presented as percent vehicle control±s.e.m., n=2.
To address the question of whether GSMs influence the concentration of secreted amyloid-β oligomers, such as those released by Chinese hamster ovary (CHO) cells expressing the APP V717F mutation (referred to as 7PA2 cells), which alter long-term potentiation and perturb the memory of learned behavior when injected into rat brain, 7PA2 cells were treated with two Aβ42-raising GSMs and a novel Aβ42-lowering GSM (FIG. 17) (Walsh et al., Nature 416:535:539 (2002); Calabrese et al., Mol. Cell. Neurosci. 35:183-193 (2007)). Fenofibrate and FT-1 increased amounts of Aβ42 whereas FT-9 lowered Aβ42, but all three GSMs decreased amounts of amyloid-β dimers and trimers. […] In contrast to increased amyloid-β oligomer formation, when CHO cells are genetically manipulated to increase Aβ42 production by co-expression of APP and FAD-linked mutant PSEN1 proteins, both Aβ42-lowering and -raising GSMs decreased oligomer formation (Xia et al., J. Biol. Chem. 272: 7977-7982 (1997)).

H4Bri-C99 (CTF-3) = details: 6 hours
Protocol: FIG. 6. […] Parent GSMs and biotin tagged photoactivatable GSMs were evaluated for their effects on Aβ secreted from H4Bri-C99 (CTF-3). Cells were treated with compounds for 6 hours and Aβ measured by ELISA. […] Changes in Aβ (percent control)±s.e.m., n=3.
Photoaffinity labelling. All experiments used the following general protocol. Samples (recombinant or synthetic peptides, cell lysates and membrane preparations) were exposed in borosilicate test tubes to ultraviolet light (350 nm) in a Rayonet Photoreactor R100 (RPR-3500 lamps, Southern New England Ultra Violet Company) in a cold room (4° C.) for 30 minutes or as otherwise noted. Crosslinked samples were analyzed by ELISA for biotin incorporation, or analyzed directly by SDS-PAGE (Criterion-XT, Bio-Rad), or after precipitation with streptavidin ultralink plus beads (Pierce). After immunblotting, proteins were detected using chemiluminesence (ECL Plus, GEHealthcare) or near-infrared fluorescence (LiCor Odyssey). Full-length APP and APP CTFs (CTF83, CTF99) were detected with CT20, a rabbit polyclonal antibody against the C-terminus of APP. Biotin was detected with an affinity-purified rabbit polyclonal antibody (Bethyl). Cell-based screens for amyloid-β modulation. Human H4 neuroglioma cells (American Type Culture Collection, ATCC) expressing wild-type APP695 protein or CTF105 fused to secreted alkaline phosphatase which is efficiently processed to APP CTFs (CTF83, CTF99) and produce high levels of amyloid-β, were used for the cell-based screens as previously described. Cells were incubated for 5-6 hours in the presence of the various compounds in Opti-Mem culture medium containing 1% fetal bovine serum. Compounds were dissolved in dimethylsulphoxide (DMSO; 0.5% final concentration) and diluted 200-fold. Media was analyzed for various amyloid-β species (40, 42 and total) using ELISAs as described herein. The EC50 values for changes in amyloid-β species were calculated by fitting sigmoid dose-response curves using nonlinear regression in Prism (GraphPad) and are shown as values±s.e.m. Statistical analysis. Data are presented as either percentage control or mean±s.e.m. Results were analyzed using Prism (Graph Pad) with t-tests or one-way analysis of variance analyses (ANOVAs) with Dunnett's post-hoc correction for comparison of multiple samples to a control. Statistical significance is shown as P,0.05 (one asterisk), P,0.01 (two asterisks) or P,0.001 (three asterisks).

[3] = FT-9 and FT-1 20 μM, fenofibrate 100 μM, ~16 hours

C[C@H](CCC(=O)O)[C@H]1CC[C@H]2[C@@H]3[C@H](O)C[C@@H]4C[C@H](O)CC[C@]4(C)[C@H]3CC[C@]12C [5β cholanic acid 3a, 7a diol]
Aβ42 levels (acidic steroids) (human H4 cells): does not

C[C@H](CCC(=O)O)[C@H]1CC[C@H]2[C@@H]3CC[C@@H]4CCCC[C@]4(C)[C@H]3CC[C@]12C [5β-cholanic acid]
Aβ42 levels (acidic steroids) (human H4 cells): one of the more potent Aβ42 reducing agents
Aβ42 levels (acidic steroids) (human H4 cells; listed as 5-β-cholanic acid): most potent Aβ42 lowering GSM
Aβ42 levels (acidic steroids) (human H4 cells; listed as 5β-Cholanic acid): potently reduces Aβ42

CC(C)C[C@H](NC(=O)[C@H](Cc1ccccc1)C[C@@H](O)[C@H](Cc1ccccc1)NC(=O)OC(C)(C)C)C(=O)N[C@@H](Cc1ccccc1)C(N)=O [L-685,458]
40 and 42 Aβ reactive species (APP wild-type cells; 10 μM, 6 hours, APPwt): inhibited
40 and 42 Aβ reactive species (APP-NOTCH TMD cells; 10 μM, 6 hours, APP-Notch TMD): inhibited

C[C@H](NC(=O)[C@@H](O)c1cc(F)cc(F)c1)C(=O)N[C@@H]1C(=O)N(C)c2ccccc2-c2ccccc21 [LY-411575]
selectivity of Aβ reduction (Aβ42 vs Aβ40) (Tg2576 mice; Tg2576, oral gavage, 4 hours): reduces Aβ40 preferentially

O=C1NC(=O)c2cc(Nc3ccccc3)c(Nc3ccccc3)cc21 [DAPH, 4,5-dianilinophthalimide]
Aβ42 levels [1]: selectively increase
GSM activity (γ-secretase): Aβ42-raising

CC(C#N)c1ccc([N+](=O)[O-])c(Oc2cc(Cl)cc(Cl)c2)c1 (centres unmarked) [FT-1, 2-(3-(3,5-dichlorophenoxy)-4-nitrophenyl)propanenitrile]
naturally secreted oligomer formation ([2]; 50 μM, IP Western blotting): inhibit oligomer formation
Aβ42 production in 7PA2 cells [2, 3]: increase production of Aβ42
dimeric and trimeric Aβ species [2, 3]: reduce production of dimeric and trimeric Aβ species
Aβ42 raised (APP wild-type cells; APP wild-type cells): 200%
Aβ40 signal (percentage of control) (APP-NOTCH TMD cells; APP-NOTCH TMD cells): 90%
Aβ42 signal (percentage of control) (APP-NOTCH TMD cells; APP-NOTCH TMD cells): 95%

C[C@@H](C(=O)O)c1ccc(-c2ccccc2)c(F)c1 [Tarenflurbil]
Aβ42 (direction of change) (H4Bri-C99 (CTF-3)): lowered Aβ42
total Aβ levels (H4Bri-C99 (CTF-3)): without decreasing total Aβ levels
lowering of Aβ42 in the brains (Tg2576 mice; 50 mg kg21, Tg2576 mice, 4 h): 25%

O=S(=O)(O)c1cccc2c(-c3ccc(Nc4ccccc4)c4c(S(=O)(=O)O)cccc34)ccc(Nc3ccccc3)c12 [Bis-ANS, 4,49-dianilino-1,19-binaphthyl-5,59-disulphonic acid]
Aβ42 levels [1]: decrease
GSM activity (γ-secretase): Aβ42-lowering
